Measurements taken from article PMC12596500, “Affinity-selected peptide ligands specifically bind i-motif DNA and modulate c-Myc gene expression” (Nucleic Acids Research, 2025).
pKd: −log10 of the molar value.

Experiments:
[1] = molecular target: short c-Myc iM-forming sequence; conditions: cited from earlier work
Protocol: To support the experiments on the stabilizing properties of the peptides, we also performed direct binding measurements of Pep-VSE and Pep-PTN using UV titrations. Binding curves are provided in Supplementary Fig. S11, and Kds are in Table 2. These experiments reveal tight binding of both PTN (0.93 ± 0.08 µM) and VSE (0.43 ± 0.03 µM) compared to other DNA structures. Although binding was detected for both peptides against c-MycG52, the G4-forming sequence in the complementary strand, there was no plateau at the concentrations examined. So, we have estimated a lower limit of 50 µM as the potent ...

[2] = test system: c-MycC52 iM; assay: Fluorescent indicator displacement (FID) assay with Thiazole Orange; assay type: binding; conditions: 1 µM c-MycC52, 2 µM TO, 10 mM sodium cacodylate pH 6.6, peptides 25-200 µM, n = 3
Protocol: Fluorescent indicator displacement (FID) experiments used in this publication are based on the first FID assay developed for iM DNA [35]. The FID experiments were performed on a BMG CLARIOstar plate reader using 96-well, solid black flat-bottom plates. Thiazole Orange (TO) was the indicator, and the stock solution was prepared at 10 mM in DMSO. The TO stock was diluted into the appropriate buffer to 2 µM. Each well received 9 µl of the 2 µM TO solution, was excited at 430 nm, and fluorescence emission at 450 nm was measured; this was normalized to 0% to account for background fluorescence. One microlitre of […] DNA was added to each well and shaken in the plate reader for 30 s using double orbital shaking at 700 rpm and left for 10 min to equilibrate. Following equilibration, fluorescence emission was measured and normalized to 100% representing maximum fluorescence. Peptides were titrated starting at 25 µM, with 0.9 µl additions into each well in triplicate, until a final concentration of 200 µM was reached, and fluorescence emission was measured after each addition. Fluorescence emission for each well was normalized between 0% and 100%, which was taken away from 100 to give the percentage of displacement. The data were analyzed in Origin data analysis software and fitted with a hyperbolic dose–response curve from which the DC50 value was interpolated.
The relative binding of the five peptide ligands to the folded c-MycC52 iM was assessed via a FID assay using TO (Fig. 1). These experiments were performed in 10 mM sodium cacodylate at pH 6.6, the transitional pH of the c-Myc iM-forming sequence. As iM-formation is reduced at higher pH and higher ionic strength, additional stabilizing cations were avoided to allow the highest proportion of iM formation at the highest pH, to represent as close to physiological pH conditions as possible.
Figure 1. Concentration-dependent interaction of peptides with c-MycC52 iM determined via FID assay. The assay was performed with 1 µM c-MycC52 in 10 mM sodium cacodylate, pH 6.6, in the presence of 2 µM TO. Peptide ligands were added in increments of 25 µM up to a final concentration of 200 µM. Data are presented as mean ± SD (n = 3) and fitted using a Hill-Slope dose–response curve.

[3] = test system: dsDNA (DS); assay: CD melting of double-stranded DNA; assay type: binding; conditions: 10 µM DS, 10 mM NaCaco pH 6.6, 10 molar eqv. peptide vs buffer; n=2
Protocol: Circular Dichroism (CD) melting experiments were performed in a Jasco J-1500 spectropolarimeter with 10 µM DNA samples in 10 mM sodium cacodylate buffer at pH 6.6 using a 1 mm path length quartz cuvette. […] The samples were kept at 5°C for 5 min before starting the melt, with a temperature increase of 1°C/min, a 0.5°C data interval, and a 60-s holding time at each target temperature. Four scans were accumulated data pitch of 0.5 nm, a scanning speed of 200 nm/min, 1 s response time, 2 nm bandwidth, and 200 mdeg sensitivity. Furthermore, two CD melting experiment repeats were performed recording C-rich c-Myc at 288 and 320 nm, G-rich c-Myc at 264 and 320 nm, and dsDNA at 253 and 320 nm with the settings as described for full spectrum measurements. Data were zero corrected to 320 nm and baseline drift. The melting temperature (TM) was concluded using the Boltzmann or biphasic fitting curve on the folded fraction data using GraphPad Prism version 10.1.2. Data were processed as mean ± SEM (n = 4) and one-way ANOVA followed by Bonferroni post-hoc test to determine significant changes between peptides and controls.

Compound	pKd [1]	relative binding affinity ranking (TO displacement) [2]	destabilization of dsDNA (decrease in TM) [3]
NC[C@H]1O[C@H](O[C@H]2[C@H](O)[C@@H](O[C@H]3O[C@H](CO)[C@@H](O)[C@H](N)[C@H]3O)[C@H](N)C[C@@H]2N)[C@H](N)C[C@@H]1O [tobramycin]	4.89		
RVS TDHMK GRGG [Pep-RVS, linear 12-mer peptide selected by phage display against c-MycC52; N-terminal acetylation, C-terminal amidation]		SLC > PTN > VSE > EIE > RVS	
EIEY TDHMK ELG [Pep-EIE, linear 12-mer peptide selected by phage display against c-MycC52; N-terminal acetylation, C-terminal amidation]		SLC > PTN > VSE > EIE > RVS	
SLCDIIRIEKVR [Pep-SLC, linear 12-mer peptide selected by phage display against c-MycC52; N-terminal acetylation, C-terminal amidation]		SLC > PTN > VSE > EIE > RVS	5 °C
